Assay results published in US5830864A, “Antiherpes peptide derivatives having a ureido n-terminus” (priority 1995, dated 1998).
*1 amine or outer side, *2 acyl side, *3 side chain or, on linkers, in order; H or OH if unused. Where a SMILES comes first, the peptide text is derived from it. [ ]: non-standard residue; d: D form. The star is where a group is joined. Gly(1-adamantyl) = N[C@H](C(=O)O)C12CC3CC(CC(C3)C1)C2; Asp(3,3-(CH2)4) = N[C@H](C(=O)O)C1(C(=O)O)CCCC1; tBuAla = CC(C)(C)C[C@H](N)C(=O)O; Tle = CC(C)(C)[C@H](N)C(=O)O; NH(3-pentyl) = CCC(CC)N*; Pyrrolidide = C1CCN(*)C1; X2 = CC(C)(C)CC(C)(C)N*; CO = O=C([*:1])[*:2]; X1 = CCCC1(N*)CCCC1; X3 = CCCC(C)(C)N*; X4 = CCCC(CCC)N*

Each molecule was assayed against HSV-1 ribonucleotide reductase (Human herpesvirus 1, UniProt P08543) (assay: biochemical).
Sequence of HSV-1 ribonucleotide reductase (P08543 whole entry): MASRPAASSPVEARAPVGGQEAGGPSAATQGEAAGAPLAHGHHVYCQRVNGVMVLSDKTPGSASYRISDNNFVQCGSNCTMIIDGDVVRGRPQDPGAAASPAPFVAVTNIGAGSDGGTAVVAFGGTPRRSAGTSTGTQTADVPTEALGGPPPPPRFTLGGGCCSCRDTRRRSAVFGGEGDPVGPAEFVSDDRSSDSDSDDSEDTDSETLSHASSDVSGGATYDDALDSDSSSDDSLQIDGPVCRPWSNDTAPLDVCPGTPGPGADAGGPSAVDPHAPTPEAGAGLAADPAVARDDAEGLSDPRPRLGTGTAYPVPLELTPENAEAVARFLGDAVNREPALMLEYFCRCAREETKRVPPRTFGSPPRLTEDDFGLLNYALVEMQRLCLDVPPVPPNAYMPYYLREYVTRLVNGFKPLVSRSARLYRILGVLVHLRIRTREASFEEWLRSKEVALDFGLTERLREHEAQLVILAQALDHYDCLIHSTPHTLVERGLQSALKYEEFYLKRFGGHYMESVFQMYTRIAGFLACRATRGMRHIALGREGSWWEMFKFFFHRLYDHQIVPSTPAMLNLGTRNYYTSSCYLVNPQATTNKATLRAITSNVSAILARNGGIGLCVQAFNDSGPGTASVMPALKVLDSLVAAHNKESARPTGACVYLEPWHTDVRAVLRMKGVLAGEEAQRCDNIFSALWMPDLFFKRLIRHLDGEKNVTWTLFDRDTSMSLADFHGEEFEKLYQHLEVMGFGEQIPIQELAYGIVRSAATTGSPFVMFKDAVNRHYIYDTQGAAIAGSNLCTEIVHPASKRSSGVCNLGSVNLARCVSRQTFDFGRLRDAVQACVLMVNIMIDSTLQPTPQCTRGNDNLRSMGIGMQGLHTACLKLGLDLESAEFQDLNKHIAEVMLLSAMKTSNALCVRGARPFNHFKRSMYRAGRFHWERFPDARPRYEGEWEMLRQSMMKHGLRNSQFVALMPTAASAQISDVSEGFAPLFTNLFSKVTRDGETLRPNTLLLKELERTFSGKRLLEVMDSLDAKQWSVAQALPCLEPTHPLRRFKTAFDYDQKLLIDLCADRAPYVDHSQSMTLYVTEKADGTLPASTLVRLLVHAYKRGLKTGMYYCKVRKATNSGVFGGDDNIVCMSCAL
Text: HSV-1 ribonucleotide reductase (partially purified) was obtained from quiescent BHK-21/C13 cells infected with strain F HSV-1 virus at 10 plaque forming units/cell as described by E. A. Cohen et al., J. Gen.
The number of units of the enzyme preparation used in each assay was constant, based on the specific activity of the enzyme preparation.
For `CCCC1(NC(=O)N[C@H](C(=O)N[C@@H](CC(=O)N2CCCC2)C(=O)N[C@H](C(=O)N[C@@H](CC(C)(C)C)C(=O)OCC)C2(C(=O)O)CCCC2)C(C)(C)C)CCCC1` [(1-propylcyclopentyl)-NHC(O)-Tbg-Asp(pyrrolidino)-Asp(cyPn)-γMeLeu-OEt] ({X1-CO}-[Tle]D(Pyrrolidide)[Asp(3,3-(CH2)4)][tBuAla]-OEt), the IC50 was 200 nM.
For `CCCC1(NC(=O)N[C@H](C(=O)N[C@@H](CC(=O)N2CCCC2)C(=O)N[C@H](C(=O)N[C@@H](CC(C)(C)C)C(=O)O)C2(C(=O)O)CCCC2)C(C)(C)C)CCCC1` [(1-propylcyclopentyl)-NHC(O)-Tbg-Asp(pyrrolidino)-Asp(cyPn)-γMeLeu-OH] ({X1-CO}-[Tle]D(Pyrrolidide)[Asp(3,3-(CH2)4)][tBuAla]-OH), the IC50 was 130 nM.
`CC(C)(C)C[C@@H](CO)NC(=O)[C@@H](NC(=O)[C@H](CC(=O)N1CCCC1)NC(=O)[C@@H](NC(=O)NCc1ccccc1)C(C)(C)C)C1(C(=O)O)CCCC1` [BzlNHC(O)-Tbg-Asp(pyrrolidino)-Asp(cyPn)-γMeLeucinol] was tested, and the IC50 was 410 nM.
Work on `CCC(CC)NC(=O)N[C@H](C(=O)N[C@@H](CC(=O)N1CCCC1)C(=O)N[C@H](C(=O)N[C@@H](CC(C)(C)C)C(=O)O)C1(C(=O)O)CCCC1)C12CC3CC(CC(C3)C1)C2` [Et2 CHNHC(O)--NH-(S)-CH(adamantyl)-C(O)-Asp(pyrrolidino)-Asp(cyPn)-γMeLeu-OH] ({NH(3-pentyl)-CO}-[Gly(1-adamantyl)]D(Pyrrolidide)[Asp(3,3-(CH2)4)][tBuAla]-OH) yielded an IC50 of 82 nM.
Work on `CCC(CC)NC(=O)N[C@H](C(=O)N[C@@H](CC(=O)N1CCCC1)C(=O)N[C@H](C(=O)N[C@H](CO)CC(C)(C)C)C1(C(=O)O)CCCC1)C12CC3CC(CC(C3)C1)C2` [Et2 CHNHC(O)--NH-(S)-CH(adamantyl)-C(O)-Asp(pyrrolidino)-Asp(cyPn)-γMeLeucinol] yielded an IC50 of 160 nM.
`CCC(CC)NC(=O)N[C@H](C(=O)N[C@@H](CC(=O)N1CCCC1)C(=O)N[C@H](C(=O)NCCC(C)(C)C)C1(C(=O)O)CCCC1)C(C)(C)C` [Et2 CHNHC(O)-Tbg-Asp(pyrrolidino)-Asp(cyPn)-NHCH2 CH2 CMe3] was tested, and the IC50 was 200 nM.
`CCC(CC)NC(=O)N[C@H](C(=O)N[C@@H](CC(=O)N1CCCC1)C(=O)N[C@H](C(=O)NCC(C)C)C1(C(=O)O)CCCC1)C(C)(C)C` [Et2 CHNHC(O)-Tbg-Asp(pyrrolidino)-Asp(cyPn)-NHCH2 CHMe2] was tested, and the IC50 was 600 nM.
Work on `CCC(CC)NC(=O)N[C@H](C(=O)N[C@@H](CC(=O)N1CCCC1)C(=O)N[C@H](C(=O)NCC(C)(C)C)C1(C(=O)O)CCCC1)C(C)(C)C` [Et2 CHNHC(O)-Tbg-Asp(pyrrolidino)-Asp(cyPn)-NHCH2 CMe3] yielded an IC50 of 130 nM.
Molecule `CCC(CC)NC(=O)N[C@H](C(=O)N[C@@H](CC(=O)N1CCCC1)C(=O)N[C@H](C(=O)N[C@@H](CC(C)(C)C)C(=O)O)C1(C(=O)O)CCCC1)C(C)(C)C` [Et2 CHNHC(O)-Tbg-Asp(pyrrolidino)-Asp(cyPn)-γMeLeu-OH] ({NH(3-pentyl)-CO}-[Tle]D(Pyrrolidide)[Asp(3,3-(CH2)4)][tBuAla]-OH) has an IC50 of 100 nM.
`CCC(CC)NC(=O)N[C@H](C(=O)N[C@@H](CC(=O)N1CCCC1)C(=O)N[C@H](C(=O)N[C@H](CO)CC(C)(C)C)C1(C(=O)O)CCCC1)C(C)(C)C` [Et2 CHNHC(O)-Tbg-Asp(pyrrolidino)-Asp(cyPn)-γMeLeucinol] showed an IC50 of 98 nM.
In the case of `CCC(CC)NC(=O)N[C@H](C(=O)N[C@@H](CC(=O)N1CCCC1)C(=O)N[C@H](C(=O)N[C@@H](CC(C)C)C(=O)O)[C@H](C(=O)O)C(C)C)C(C)(C)C` [Et2 CHNHC(O)-Tbg-Asp(pyrrolidino)-Asp{(R)-iPr}-Leu-OH], the IC50 is reported as 570 nM.
`CCC(CC)NC(=O)N[C@H](C(=O)N[C@@H](CC(=O)N1CCCC1)C(=O)N[C@H](C(=O)N[C@@H](CC(C)(C)C)C(=O)O)[C@H](C(=O)O)C(C)C)C(C)(C)C` [Et2 CHNHC(O)-Tbg-Asp(pyrrolidino)-Asp{(R)-iPr}-γMeLeu-OH] was tested, and the IC50 was 72 nM.
Work on `CCC(CC)NC(=O)N[C@H](C(=O)N[C@@H](CC(=O)N1CCCC1)C(=O)N[C@H](C(=O)N[C@H](CO)CC(C)(C)C)[C@H](C(=O)O)C(C)C)C(C)(C)C` [Et2 CHNHC(O)-Tbg-Asp(pyrrolidino)-Asp{(R)-iPr}-γMeLeucinol] yielded an IC50 of 100 nM.
Molecule `CCCC(CC)(CCC)NC(=O)N[C@H](C(=O)N[C@@H](CC(=O)N1CCCC1)C(=O)N[C@H](C(=O)N[C@H](CC)C(C)(C)C)C1(C(=O)O)CCCC1)C(C)(C)C` [EtPr2 CNHC(O)-Tbg-Asp(pyrrolidino)Asp(cyPn)-NH-(R)-CH(Et)CMe3] has an IC50 of 140 nM.
With `CC(C)NC(=O)N[C@H](C(=O)N[C@@H](CC(=O)N1CCCC1)C(=O)N[C@H](C(=O)N[C@H](CO)CC(C)(C)C)C1(C(=O)O)CCCC1)C(C)(C)C` [Me2 CHNHC(O)-Tbg-Asp(pyrrolidino)-Asp(cyPn)-γMeLeucinol] the IC50 was 70 nM.
`CC(C)(C)C[C@H](NC(=O)[C@@H](NC(=O)[C@H](CC(=O)N1CCCC1)NC(=O)[C@@H](NC(=O)NC(C)(C)CC(C)(C)C)C(C)(C)C)C1(C(=O)O)CCCC1)C(=O)O` [Me3 CCH2 CMe2 NHC(O)-Tbg-Asp(pyrrolidino)-Asp(cyPn)-γMeLeu-OH] ({X2-CO}-[Tle]D(Pyrrolidide)[Asp(3,3-(CH2)4)][tBuAla]-OH) was tested, and the IC50 was 180 nM.
`CC(C)(C)C[C@@H](CO)NC(=O)[C@@H](NC(=O)[C@H](CC(=O)N1CCCC1)NC(=O)[C@@H](NC(=O)NC(C)(C)C)C(C)(C)C)C1(C(=O)O)CCCC1` [Me3 CNHC(O)-Tbg-Asp(pyrrolidino)-Asp(cyPn)-γMeLeucinol] showed an IC50 of 100 nM.
For `CNC(=O)N[C@H](C(=O)N[C@@H](CC(=O)N1CCCC1)C(=O)N[C@H](C(=O)N[C@H](CO)CC(C)(C)C)C1(C(=O)O)CCCC1)C(C)(C)C` [MeNHC(O)-Tbg-Asp(pyrrolidino)-Asp(cyPn)-γMeLeucinol], the IC50 was 890 nM.
Molecule `CCCC(C)(CCC)NC(=O)N[C@H](C(=O)N[C@@H](CC(=O)N1CCCC1)C(=O)N[C@H](C(=O)NCC(C)(C)C)C1(C(=O)O)CCCC1)C(C)(C)C` [MePr2 CNHC(O)-Tbg-Asp(pyrrolidino)-Asp(cyPn)-NHCH2 CMe3] has an IC50 of 160 nM.
With `CC(C)(C)C[C@@H](CO)NC(=O)[C@@H](NC(=O)[C@H](CC(=O)N1CCCC1)NC(=O)[C@@H](NC(=O)Nc1ccccc1)C(C)(C)C)C1(C(=O)O)CCCC1` [PhNHC(O)-Tbg-Asp(pyrrolidino)-Asp(cyPn)-γMeLeucinol] the IC50 was 710 nM.
In the case of `CCCC(CCC)NC(=O)N[C@H](C(=O)N[C@@H](CC(=O)N1CCCC1)C(=O)N[C@H](C(=O)N[C@H](CO)CC(C)(C)C)C1(C(=O)O)CCCC1)C(C)(C)C(=O)O` [Pr2 CHNHC(O)-Asp(diMe)-Asp(pyrrolidino)-Asp(cyPn)-γMeLeucinol], the IC50 is reported as 200 nM.
`CCCC(CCC)NC(=O)N[C@H](C(=O)N[C@@H](CC(=O)N1CCCC1)C(=O)N[C@H](C(=O)NCC(C)(C)CC)C1(C(=O)O)CCCC1)C(C)(C)C` [Pr2 CHNHC(O)-Tbg-Asp(pyrrolidino)-Asp(cyPn)-NHCH2 CMe2 Et] showed an IC50 of 240 nM.
`CCCC(CCC)NC(=O)N[C@H](C(=O)N[C@@H](CC(=O)N1CCCC1)C(=O)N[C@H](C(=O)NCC(C)(C)C)C1(C(=O)O)CCCC1)C(C)(C)C` [Pr2 CHNHC(O)-Tbg-Asp(pyrrolidino)-Asp(cyPn)-NHCH2 CMe3] showed an IC50 of 180 nM.
`CCCC(CCC)NC(=O)N[C@H](C(=O)N[C@@H](CC(=O)N1CCCC1)C(=O)N[C@H](C(=O)N[C@H](C)C(C)(C)C)C1(C(=O)O)CCCC1)C(C)(C)C` [Pr2 CHNHC(O)-Tbg-Asp(pyrrolidino)-Asp(cyPn)-NHCH(CH3)CMe3] gave an IC50 of 180 nM.
`CCCC(CCC)NC(=O)N[C@H](C(=O)N[C@@H](CC(=O)N1CCCC1)C(=O)N[C@H](C(=O)N[C@@H](CC(C)(C)C)C(=O)O)C1(C(=O)O)CCCC1)C(C)(C)C` [Pr2 CHNHC(O)-Tbg-Asp(pyrrolidino)-Asp(cyPn)-γMeLeu-OH] ({X4-CO}-[Tle]D(Pyrrolidide)[Asp(3,3-(CH2)4)][tBuAla]-OH) showed an IC50 of 96 nM.
For `CCCC(CCC)NC(=O)N[C@H](C(=O)N[C@@H](CC(=O)C1CCC1)C(=O)N[C@H](C(=O)NCC(C)(C)C)C1(C(=O)O)CCCC1)C(C)(C)C` [Pr2 CHNHC(O)-Tbg-NH-(S)-CH(2-cyclobutyl-2-oxoethyl)C(O)-Asp(cyPn)-NHCH2 CMe3], the IC50 was 250 nM.
Work on `CCCC(CCC)NC(=O)N[C@H](C(=O)N[C@@H](CC(=O)C1CCCC1)C(=O)N[C@H](C(=O)NCC(C)(C)C)C1(C(=O)O)CCCC1)C(C)(C)C` [Pr2 CHNHC(O)-Tbg-NH-(S)-CH(2-cyclopentyl-2-oxoethyl)C(O)-Asp(cyPn)-NHCH2 CMe3] yielded an IC50 of 200 nM.
With `CCCC(CCC)NC(=O)N[C@H](C(=O)N[C@@H](CC(=O)C1CCCCC1)C(=O)N[C@H](C(=O)NCC(C)(C)C)C1(C(=O)O)CCCC1)C(C)(C)C` [Pr2 CHNHC(O)-Tbg-NHCH(2-cyclohexyl-2-oxoethyl)C(O)-Asp(cyPn)-NHCH2 CMe3] the IC50 was 140 nM.
Work on `CCCC(CCC)NC(=O)N[C@H](C(=O)N[C@@H](CC(=O)C(CC)CC)C(=O)N[C@H](C(=O)NCC(C)(C)C)C1(C(=O)O)CCCC1)C(C)(C)C` [Pr2 CHNHC(O)-Tbg-NHCH(3-ethyl-2-oxopentyl)CO-Asp(cyPn)-NHCH2 CMe3] yielded an IC50 of 400 nM.
Molecule `CCCC(C)(C)NC(=O)N[C@H](C(=O)N[C@@H](CC(=O)N1CCCC1)C(=O)N[C@H](C(=O)N[C@@H](CC(C)(C)C)C(=O)O)C1(C(=O)O)CCCC1)C(C)(C)C` [PrMe2 CNHC(O)-Tbg-Asp(pyrrolidino)-Asp(cyPn)-γMeLeu-OH] ({X3-CO}-[Tle]D(Pyrrolidide)[Asp(3,3-(CH2)4)][tBuAla]-OH) has an IC50 of 100 nM.
`CCCC(CCC)NC(=O)N[C@H](C(=O)N[C@@H](CC(=O)N1CCCC1)C(=O)N[C@H](C(=O)N[C@H](CO)CC(C)(C)C)C1(C(=O)O)CCCC1)C(C)(C)C` [Title Compound of Example 8, Pr2 CHNHC(O)-Tbg-Asp(pyrrolidino)-Asp(cyPn)-γMeLeucinol] gave an IC50 of 80 nM.
